Laboratory results published in patent US7612054B2, “Dibenzo[b,f]oxepine-10-carboxamides and pharmaceutical uses thereof” (Novartis AG, priority 2003, dated 2009).

melting point [°C]	SMILES
204 to 207	CCCCNC(=O)C(C)CC(O)C(Cc1cccc(F)c1)NC(=O)C1=Cc2ccccc2Oc2ccccc21 (stereo not shown) [Example 17, Dibenzo[b,f]oxepine-10-carboxylic acid [4-butylcarbamoyl-1-(3-fluorobenzyl)-2-hydroxy-pentyl]-amide]
174 to 176	CCCCNC(=O)C(C)CC(O)C(Cc1cc(F)cc(F)c1)NC(=O)C1=Cc2ccccc2Oc2ccccc21 (stereo not shown) [Example 16, Dibenzo[b,f]oxepine-10-carboxylic acid [4-butylcarbamoyl-1-(3,5-difluorobenzyl)-2-hydroxy-pentyl]-amide]
229 to 230	CCCCNC(=O)C(C)CC(O)C(Cc1ccccc1)NC(=O)c1cc2ccccc2c(=O)c2ccccc12 (stereo not shown) [Example 11, 5-Oxo-5H-dibenzo[a,d]cycloheptene-10-carboxylic acid (1-benzyl-4-butylcarbamoyl-2-hydroxy-pentyl)-amide]
153 to 155	CCCCNC(=O)C(C)CC(O)C(Cc1ccccc1)NC(=O)C1=Cc2ccccc2Oc2cc(Cl)ccc21 (stereo not shown) [Example 9, 7-Chloro-dibenzo[b,f]oxepine-10-carboxylic acid (1-benzyl-4-butylcarbamoyl-2-hydroxy-pentyl)-amide]
